1 molecule from EP1921068A1, “Indazole and indole derivatives as anti-inflammatory agents” (Bayer Schering Pharma Aktiengesellschaft, priority 2006, dated 2008) can be followed below.

The target of assay [1] is T1, glucocorticoid receptor (GR) (Homo sapiens, UniProt P04150).
T1 construct: made in house; host or cells: Sf9 insect cells infected with recombinant baculovirus; cytosol preparation
T1 sequence (P04150 1-777): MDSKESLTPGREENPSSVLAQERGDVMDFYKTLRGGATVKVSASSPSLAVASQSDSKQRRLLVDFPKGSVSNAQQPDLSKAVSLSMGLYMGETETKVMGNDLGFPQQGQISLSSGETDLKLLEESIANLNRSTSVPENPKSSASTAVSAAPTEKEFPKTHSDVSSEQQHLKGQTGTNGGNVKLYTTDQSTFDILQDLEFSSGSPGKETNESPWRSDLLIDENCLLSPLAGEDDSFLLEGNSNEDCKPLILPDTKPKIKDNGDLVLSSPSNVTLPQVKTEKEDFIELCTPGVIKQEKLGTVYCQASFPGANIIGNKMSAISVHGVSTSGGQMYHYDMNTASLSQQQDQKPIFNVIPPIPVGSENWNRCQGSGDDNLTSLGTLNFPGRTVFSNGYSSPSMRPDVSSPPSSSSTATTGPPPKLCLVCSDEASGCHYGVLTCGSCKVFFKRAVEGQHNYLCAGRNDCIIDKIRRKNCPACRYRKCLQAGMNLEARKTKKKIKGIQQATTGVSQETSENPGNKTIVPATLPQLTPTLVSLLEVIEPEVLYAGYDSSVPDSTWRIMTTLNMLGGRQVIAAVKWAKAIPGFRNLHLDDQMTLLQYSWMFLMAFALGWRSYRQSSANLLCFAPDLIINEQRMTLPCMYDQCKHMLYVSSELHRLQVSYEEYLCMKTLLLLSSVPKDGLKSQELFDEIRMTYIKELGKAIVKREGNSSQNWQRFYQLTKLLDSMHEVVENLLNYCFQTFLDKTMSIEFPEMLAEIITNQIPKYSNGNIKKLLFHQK
In words: Binding to recombinantly produced glucocorticoid receptor (cytosol preparations of baculovirus-infected Sf9 cells, [3H]-dexamethasone as reference substance). The following applies: recombinant GR. From the text: The binding of the substances to the glucocorticoid receptor (GR) and other steroid hormone receptors (mineral corticoid receptor (MR), progesterone receptor (PR) and androgen receptor (AR)) is examined with the aid of recombinantly produced receptors. Cytosol preparations of Sf9 cells, which had been infected with recombinant baculoviruses, which code for the GR, are used for the binding studies. In comparison to reference substance [^3H]-dexamethasone, the substances show a high to very high affinity to GR. IC50(GR) = 11,5 nM was thus measured for the compound from Example A16.

The test system of assay [2] is secretion of cytokine IL-8 into the human monocyte cell line THP-1. As to the kind of experiment: Inhibition of LPS-triggered IL-8 secretion in THP-1 cells (ELISA of supernatant). Format: cell-based. The procedure: The concentration of the cytokines was determined in the supernatant by means of commercially available ELISA kits.
Background: An ELISA detects its analyte on a solid surface through an enzyme-linked reagent.

Molecules are shown by their SMILES.

In general, IC50 refers to the midpoint of a concentration-inhibition curve. As to `CC(C)(CC(O)(CNc1cccc2c1cnn2-c1ccc(F)nc1)C(F)(F)F)c1cccc2c1OCO2` (stereo not drawn) [Example A16], the IC50 in assay [1] was 11.5 nM; in assay [2] (read-out: IC50(IL8)) it was 0.3 nM. Besides, the Emax in assay [2] (efficacy relative to dexamethasone, read-out: eff. relative to dexamethasone) was found to be 94%.
